{
  "source": "patent US9433553B2",
  "about": "“Device and method for prevention and treatment of deep venous thrombosis” (Fred Herz Patents LLC, priority 2001, dated 2016)",
  "origin": "cited, not measured here",
  "key": {"thrombin": {"biological_target": "thrombin (Homo sapiens, UniProt P00734)", "settings": "synthetic peptides of the thrombin receptor"}, "[1]": {"system": "patients undergoing elective total hip replacement"}, "[2]": {"system": "patients undergoing knee arthroplasty"}, "[3]": {"system": "patients having surgery after hip fracture", "settings": "aspirin treated group; placebo 46%"}, "[4]": {"system": "experimental thrombus in the rabbit jugular vein"}, "[5]": {"system": "stasis induced thrombosis", "settings": "rabbit; 100% without"}, "[6]": {"system": "patients with spinal cord injury", "settings": "Green (1991)"}, "[7]": {"system": "patients undergoing radical prostatectomy"}, "[8]": {"system": "patients with deep vein thrombosis", "settings": "for patients who developed pulmonary embolism: APTT 50-70 seconds, acute deep vein thrombosis"}, "[9]": {"system": "patients who underwent elective general surgery"}, "[10]": {"settings": "total hip replacement, no placebo group"}, "[11]": {"settings": "349 patients undergoing total hip replacement, dose adjusted"}, "[12]": {"settings": "665 patients, fixed doses, elective total hip replacement"}, "[13]": {"settings": "subcutaneous, adjusted to APTT 1.5-2 times pretreatment, 66 patients"}, "[14]": {"settings": "4,498 general surgery patients randomized to LMWH or placebo"}},
  "note": "Like-named read-outs stand apart in the source and are kept apart here.",
  "data": [
    {"compound": "38-45: synthetic peptide corresponding to the thrombin receptor cleavage site (residues 38-45) (LDPRSFLL; UniProt P25116 38-45, looked up, fragment) [Peptide 38-45]", "values": [
      {"measurement": "inhibition of the chromogenic substrate activity of thrombin", "setting": "thrombin", "value": "competitive inhibitors"}
    ]},
    {"compound": "38-64: synthetic peptide corresponding to the covalently associated domains (residues 38-64) of the thrombin receptor (LDPRSFLLRNPNDKYEPFWEDEEKNES; UniProt P25116 38-64, looked up, fragment) [Peptide 38-64]", "values": [
      {"measurement": "inhibition of the chromogenic substrate activity of thrombin", "setting": "thrombin", "value": "competitive inhibitors"}
    ]},
    {"compound": "CC(=O)CC(c1ccccc1)c1c(O)c2ccccc2oc1=O", "note": "(stereo not shown) [Warfarin]", "values": [
      {"measurement": "incidence of DVT", "setting": "[1]; Bailey et al (1991), hip replacement patients, low dose warfarin", "value": 26.6, "unit": "%"},
      {"measurement": "incidence of proximal vein thrombosis", "setting": "[1]; [10]", "value": 3, "unit": "%"},
      {"measurement": "total incidence of DVT", "setting": "[1]; [10]", "value": 31, "unit": "%"},
      {"measurement": "incidence of thigh vein thrombi", "setting": "[2]; knee arthroplasty / total knee replacement, 48 patients", "value": 6, "unit": "%"},
      {"measurement": "overall incidence of DVT", "setting": "[2]; knee arthroplasty / total knee replacement, 48 patients, no placebo group", "value": 33, "unit": "%"},
      {"measurement": "patients having calf thrombi", "setting": "[2]; total knee replacement, 48 patients", "value": 29, "unit": "%"}
    ]},
    {"compound": "CC(=O)Oc1ccccc1C(=O)O", "note": "[aspirin]", "values": [
      {"measurement": "incidence of DVT", "setting": "[3]", "value": 42, "unit": "%"}
    ]},
    {"compound": "Ac(D)-Phe-Pro-bro-Arg [DuP 714]", "values": [
      {"measurement": "fibrin accretion on an experimental thrombus", "setting": "[4]; rabbit jugular vein", "value": "effectively inhibited"},
      {"measurement": "systemic anticoagulation", "setting": "[4]; rabbit jugular vein model", "value": "little systemic anticoagulation"},
      {"measurement": "incidence of thrombosis", "setting": "[5]", "value": 33, "unit": "%"}
    ]},
    {"compound": "enoxaparin", "values": [
      {"measurement": "proximal vein thrombi", "setting": "[1]; Turpie (1991), fixed dose, elective total hip replacement, placebo 20%", "value": 4, "unit": "%"},
      {"measurement": "rate of DVT", "setting": "[1]; Turpie (1991), fixed dose, elective total hip replacement, placebo 42%", "value": 12, "unit": "%"}
    ]},
    {"compound": "heparin", "values": [
      {"measurement": "protection against postoperative DVT, adjusted versus fixed low dose", "setting": "[1]; 100 patients, hip replacement or fractured neck of femur, p=0.017", "value": "Significant improvement"},
      {"measurement": "incidence of DVT", "setting": "[1]; [11]", "value": 16, "unit": "%"},
      {"measurement": "incidence of DVT", "setting": "[1]; [12]", "value": 23.2, "unit": "%"},
      {"measurement": "rate of proximal vein thrombi", "setting": "[1]; [12]", "value": 6.5, "unit": "%"},
      {"measurement": "bleeding, adjusted versus fixed dose", "setting": "[1]; Leyvraz et al (1983)", "value": "No differences"},
      {"measurement": "patients who developed DVT", "setting": "[1]; Leyvraz et al (1983), 38 patients, adjusted dose (APTT 31.5-36 seconds)", "value": 13, "unit": "%"},
      {"measurement": "patients who developed DVT", "setting": "[1]; Leyvraz et al (1983), 41 patients, fixed dose of 3500 U every eight hours", "value": 39, "unit": "%"},
      {"measurement": "incidence of DVT left by low dose heparin treatment", "setting": "[1]; total hip and total knee replacement patients", "value": "around 25%"},
      {"measurement": "patients with bleeding", "setting": "[6]; adjusted (higher) dose", "value": 24, "unit": "%"},
      {"measurement": "thromboembolism", "setting": "[6]; dose adjusted to APTT 1.5 times control, mean 13,200 U every 12 hours", "value": 7, "unit": "%"},
      {"measurement": "patients with bleeding", "setting": "[6]; fixed dose group", "value": "none"},
      {"measurement": "thromboembolism", "setting": "[6]; fixed dose of 5000 U subcutaneously every 12 hours, 29 patients", "value": 31, "unit": "%"},
      {"measurement": "bleeding complications", "setting": "[7]; mini-dose heparin treated group", "value": "unacceptably high"},
      {"measurement": "incidence of pulmonary emboli", "setting": "[7]; mini-dose heparin, 11% without", "value": "none"},
      {"measurement": "effectiveness of low dose heparin", "setting": "intracerebral hemorrhage", "value": "ineffective"},
      {"measurement": "patients with recurrent venous thromboembolism diagnosed objectively", "setting": "[8]; Prandoni et al (1992), similar study, 85 patients", "value": 14, "unit": "%"},
      {"measurement": "patients with improved mean Marder score", "setting": "[8]; adjusted dose intravenous, 49 patients", "value": 61, "unit": "%"},
      {"measurement": "major bleeding associated with initial therapy", "setting": "[8]; adjusted dose intravenous, continuous infusion", "value": 5, "unit": "%"},
      {"measurement": "incidence of new episodes of venous thromboembolism", "setting": "[8]; adjusted dose intravenous, continuous infusion, initial treatment of proximal vein thrombosis", "value": 6.9, "unit": "%"},
      {"measurement": "patients who developed pulmonary embolism", "setting": "[8]; adjusted subcutaneous, 47 patients", "value": 10.6, "unit": "%"},
      {"measurement": "patients who developed pulmonary embolism", "setting": "[8]; continuous intravenous, 49 patients", "value": 10.2, "unit": "%"},
      {"measurement": "rate of hemorrhagic complications", "setting": "[8]; subcutaneous and intravenous groups, no difference", "value": 9.8, "unit": "%"},
      {"measurement": "patients with improvement", "setting": "[8]; [13]", "value": 48, "unit": "%"},
      {"measurement": "patients with increase in thrombus size", "setting": "[8]; [13]", "value": 18, "unit": "%"},
      {"measurement": "reduction of postoperative death from pulmonary emboli", "setting": "[9]; low dose heparin", "value": 65, "unit": "%"},
      {"measurement": "subclinical thrombi prevented", "setting": "[9]; low dose heparin, thrombi found by leg scanning after elective general surgery", "value": "approximately 65%"}
    ]},
    {"compound": "low molecular weight heparin [LMWH]", "values": [
      {"measurement": "incidence of DVT", "setting": "[1]; [11]", "value": 12.6, "unit": "%"},
      {"measurement": "incidence of DVT", "setting": "[1]; [12]", "value": 19.4, "unit": "%"},
      {"measurement": "rate of proximal vein thrombi", "setting": "[1]; [12]", "value": 5.4, "unit": "%"},
      {"measurement": "reduction of incidence of DVT", "setting": "[1]; elective total hip replacement, 56.6% to 15.5%", "value": 74, "unit": "%"},
      {"measurement": "incidence of DVT", "setting": "[1]; elective total hip replacement, without LMWH 56.6%", "value": 15.5, "unit": "%"},
      {"measurement": "reduction of incidence of proximal vein thrombi", "setting": "[2]; knee arthroplasty or tibial osteotomy", "value": 100, "unit": "%"},
      {"measurement": "reduction of incidence of DVT", "setting": "[2]; knee arthroplasty or tibial osteotomy, every 12 hours", "value": 71, "unit": "%"},
      {"measurement": "incidence of DVT", "setting": "[2]; knee arthroplasty or tibial osteotomy, every 12 hours, placebo 65%", "value": 19, "unit": "%"},
      {"measurement": "incidence of proximal vein thrombi", "setting": "[2]; knee arthroplasty or tibial osteotomy, placebo 19%", "value": "none"},
      {"measurement": "major bleeding compared to placebo", "setting": "[9]; 4,498 general surgery patients", "value": "No difference"},
      {"measurement": "postoperative wound hematomas and transfusion requirements compared to placebo", "setting": "[9]; 4,498 general surgery patients", "value": "increase in postoperative wound hematomas and transfusion requirements"},
      {"measurement": "overall mortality", "setting": "[9]; [14]", "value": 0.36, "unit": "%"},
      {"measurement": "thromboembolic mortality", "setting": "[9]; [14]", "value": 0.09, "unit": "%"},
      {"measurement": "incidence of DVT", "setting": "[9]; Ockelford et al (1989), 183 patients, LMWH or placebo", "value": 4.2, "unit": "%"},
      {"measurement": "efficacy compared with standard heparin", "setting": "[9]; seven studies in general surgery patients", "value": "same efficacy"}
    ]}
  ]
}
